Assay results as given in patent US20130142847A1, “S-ADENOSYLMETHIONINE FORMULATIONS WITH ENHANCED BIOAVAILABILITY” (Methylation Sciences, Inc., priority 2009, published 2013).

Key:
Caco-2 cell monolayers [1] = test: Caco-2 permeability of SAMe in the presence of tight junction modulators (Examples 3a, 3c); settings: for effect on SAMe uptake / SAMe permeability: in the presence of the agent, result in words; for change in SAMe permeability across the Caco-2 cell monolayer: sulfobetaine 0.15 mM as the enhancer; for Permeability Coefficient: SAMe permeability; for Fold Transport Increase: SAMe transport vs SAMe control
Procedure: (§1) Similar to the description above, the Caco-2 cell line was obtained from ATCC and grown in DMEM (Sigma-Aldrich) supplemented with 20% FBS (Sigma-Aldrich), 100 uM non-essential amino acids (Sigma-Aldrich) and 2 mM L-glutamine (Sigma-Aldrich). The Caco-2 cells grown in tissue culture flasks were trypsinized, suspended in medium, and the suspensions were applied to wells of a collagen-coated BioCoat Cell Environment in 24-well format at 24,500 cells per well. The cells were allowed to grow and differentiate for three weeks, feeding at 2-day intervals.
(§2) For apical to basolateral permeability, a 2 mM aqueous solution of SAMe tosylate disulfate was added to the apical side and the amount of permeation was determined on the basolateral side. The apical and basolateral side buffers contained modified Transport Buffer (25 mM HEPES, 1× Hank's Balanced Salt Solution (Sigm-Aldrich)) pH 7.4. Caco-2 cells were incubated with these buffers for 2 hours, and the receiver side buffer was removed for analysis by LC/MS/MS. The receiver, donor, and dosing solution were diluted with an equal volume of 0.2 N HCl immediately after the assay in order to increase SAMe stability. Donor and dosing solution were diluted 100-fold to ensure that the concentration was within the linear range of the assay.
(§3) The permeability (Papp) of SAMe is calculated using the following formula:
(§4) Where dQ/dt is the rate of permeation, C0 is the initial concentration of test agent, and A is the area of the monolayer.
(§5) In vitro Caco-2 testing was performed as detailed above using 0.15 mM of sulfobetaine-10, sulfobetaine-12, sulfobetaine-14, sulfobetaine-16, or sulfobetaine-18 as the enhancer.

[2] = Single dose pharmacokinetic study of enteric coated SAMe capsules in fasted male beagle dogs; assay type: in vivo; settings: for effect on in vivo bioavailability of SAMe / amount of SAMe in the plasma versus control: beagle dogs, capsule 200 mg SAMe ion + 200 mg enhancer vs control capsule, result in words
Procedure: Following collection, samples were centrifuged (at 4° C.) to separate the plasma fraction from the blood cells. The resulting plasma fraction was recovered and stored frozen (at −80° C.) using polypropylene tubes pending bioanalytical analysis.
This method employs stable-isotope dilution liquid chromatography-electrospray […] tandem mass spectrometry (LC-ESI-MS/MS) to determine SAMe and SAH in plasma.

Caco-2 cell monolayers [3] = test: 24 hour resistance recovery test (Caco-2 cell recovery post treatment); assay type: cell-based, human
Procedure: As part of these in vitro studies, the degree of Caco-2 cell recovery (as observed by degree of permeability and cell attachment 24 hours post treatment with each tight junction modulator) was also investigated. This 24 hour resistance recovery test is an indirect measure of epithelial cell disruption and data supporting a trend toward less in vitro disruption may be associated with less impact in vivo.

Caco-2 cell monolayers [4] = test: Permeability of SAMe across Caco-2 cell monolayers (Example 3); settings: for Papp_a-b Apical to Basal: apical to basolateral; for Papp_a-b Apical to Basal / Papp_b-a Basal to Apical: HBSS pH 7.4, 120 minute incubation, SAMe salt 2 mM; for Papp_b-a Basal to Apical: basolateral to apical
Procedure: (§6) In these models, pure cell lines are grown on a semi-permeable membrane. Drug formulations are placed on the apical or basolateral side of the cell monolayer and transport is determined via measurement of drug concentrations on the other side of the membrane.
(§7) The Caco-2 cell line utilized here was from the American Type Culture Collection (ATCC). Caco-2 cells are grown in Dulbecco's modified Eagle's medium (DMEM, Gibco) supplemented with 20% FBS (fetal bovine serum, Gibco), 100 uM non-essential amino acids (NEAA, Gibco) and 2 mM L-glutamine (Gibco). A Beckton Dickinson BIOCOAT® HTS Caco-2 Assay System Kit is used resulting in 6.6×10^5 cells/cm^2 seeding density (BIOCOAT is a registered trademark of Collaborative Biomedical Products, Inc., Bedford, Mass., USA). The cells used in transport studies are grown for 3 days before the experiments. The culturing conditions are 37° C. in an atmosphere of 5% CO2 and 100% humidity.
(§8) For permeability across Caco-2 cell monolayers, the transport medium used was Hank's Buffered Salt Solution (HBSS; purchased from Gibco) containing D-glucose, and HEPES pH adjusted to 7.4. A 2 mM aqueous solution of either SAMe tosylate disulfate or SAMe 1,4 butanedisulfonate was added on the apical or basolateral side according to the manufacturer's procedure for the Caco-2 kit. Samples were measured after 120 minute incubation by liquid chromatography-mass spectrometry (LC/MS). The integrity of the monolayers was monitored using Lucifer Yellow Assay. […] Propranolol is a high permeability marker and was utilized as a positive control for a readily absorbed molecule.

[5] = as above; settings: human, Caco-2, pH 7.4
Procedure: as §6, §7, §8

[6] = Caco-2 permeability of SAMe in the presence of tight junction modulators (Examples 3a, 3c); settings: human, Caco-2, pH 7.4, Permeability Coefficient, permeability control compound itself, 50 uM
Procedure: as §1, §2, §3, §4, §5

[7] = Plasma SAMe metabolites after 1600 mg of a commercially available SAMe formulation; assay type: in vivo; settings: all time points after 1600 mg dose of commercially available SAMe; seven subjects
Procedure: This finding is in contrast to the general dogma surrounding SAMe metabolism which continually reports that low SAMe bioavailability is due to active metabolism by the liver upon administration. […] In order to test this theory, the inventors measured the level of S-adenosyl homocysteine (SAH), the primary metabolite of SAMe, at various time points after administration of a 1600 mg dose of a commercially available SAMe formulation.

cultured rat hepatocytes = settings: McMillan et al. 2005; cited from earlier work
[8] = literature reports; cited from earlier work
Caco-2 cells = settings: McMillan et al. 2005; cited from earlier work
[9] = plasma, fasted male beagle dogs, single oral enteric coated capsule, 200 mg SAMe ion with or without 200 mg enhancer

CCCCCCCCCCCCCCCC[N+](C)(C)CCCS(=O)(=O)[O-] [3-(N,N-Dimethylpalmitylammonio)propanesulfonate]
effect on SAMe uptake / SAMe permeability (Caco-2 cell monolayers [1]): marked increase in SAMe permeability
change in SAMe permeability across the Caco-2 cell monolayer (Caco-2 cell monolayers [1]): at least a five-fold increase
effect on in vivo bioavailability of SAMe / amount of SAMe in the plasma versus control [2]: significant increase in the amount of SAMe present in the plasma
TEER Resist. 24 hour post assay (Caco-2 cell monolayers [3]; enhancer 0.6 mM): 33 ohms

CCCCCCCCCCCCCCCC(=O)OC(CC(=O)O)C[N+](C)(C)C.[Cl-] (stereo not drawn) [Palmitoyl Carnitine Chloride (PCC), Palmitoyl carnitine chloride]
Permeability Coefficient (Caco-2 cell monolayers [1]; test article 0.15 mM, run 2): 0.78 ×10⁻⁶ cm/s
Permeability Coefficient (Caco-2 cell monolayers [1]; test article 0.15 mM, run 4): 5 ×10⁻⁶ cm/s
Permeability Coefficient (Caco-2 cell monolayers [1]; test article 0.4 mM, run 4): 10 ×10⁻⁶ cm/s
effect on SAMe uptake / SAMe permeability (Caco-2 cell monolayers [1]): marked increase in SAMe permeability

CC(C)NCC(O)COc1cccc2ccccc12 (stereo not drawn) [Propranolol]
Papp_a-b Apical to Basal (Caco-2 cell monolayers [4]): 22.4 ×10⁻⁶ cm/s
Papp_b-a Basal to Apical (Caco-2 cell monolayers [4]): 18.4 ×10⁻⁶ cm/s
Papp A→B at 120 min [5]: 22.4 ×10⁻⁶ cm/s
Papp B→A at 120 min [5]: 18.4 ×10⁻⁶ cm/s

CNC(=C[N+](=O)[O-])NCCSCc1ccc(CN(C)C)o1 [Ranitidine, reference compound]
Papp at 2 h, 50 uM ([6]; run 2): 0.91 ×10⁻⁶ cm/s
Papp at 2 h, 50 uM ([6]; run 3): 0.91 ×10⁻⁶ cm/s
Papp at 2 h, 50 uM ([6]; run 4): 1 ×10⁻⁶ cm/s

Nc1ncnc2c1ncn2[C@@H]1O[C@H](CSCC[C@H](N)C(=O)O)[C@@H](O)[C@H]1O [SAH, S-adenosyl homocysteine]
plasma concentration of SAH relative to SAMe [7]: significantly lower than the level of SAMe itself

C[S+](CC[C@H](N)C(=O)[O-])C[C@H]1O[C@@H](n2cnc3c(N)ncnc32)[C@H](O)[C@@H]1O.O=S(=O)(O)CCCCS(=O)(=O)O (stereo partly drawn) [SAMe 1,4 butanedisulfonate]
Papp_a-b Apical to Basal (Caco-2 cell monolayers [4]): 0.5 ×10⁻⁶ cm/s
Papp_b-a Basal to Apical (Caco-2 cell monolayers [4]): 0.6 ×10⁻⁶ cm/s

C[S+](CC[C@H](N)C(=O)O)C[C@H]1O[C@@H](n2cnc3c(N)ncnc32)[C@H](O)[C@@H]1O (stereo partly drawn) [SAMe, S-adenosyl-L-methionine]
absorption by cultured rat hepatocytes (cultured rat hepatocytes): poorly absorbed
SAMe bioavailability when orally administered [8]: less than 5%
fold increase in SAMe permeability (Caco-2 cell monolayers [4]; calcium-free buffer): 13-24 fold
transport through a monolayer of Caco-2 cells (Caco-2 cells): poorly transported

CCCCCCCCCC(=O)[O-].[Na+] [Sodium Caprate]
effect on in vivo bioavailability of SAMe / amount of SAMe in the plasma versus control [2]: did not enhance the in vivo bioavailability of SAMe

CCCCCCCC[N+](C)(C)CCCS(=O)(=O)[O-] [Sulfobetaine-8]
Permeability Coefficient (Caco-2 cell monolayers [1]; enhancer 0.15 mM (Table 7)): 0.218 ×10⁻⁶ cm/s
Fold Transport Increase (Caco-2 cell monolayers [1]; enhancer 0.15 mM (Table 7)): 1.2X
TEER Resist. 24 hour post assay (Caco-2 cell monolayers [3]; enhancer 0.15 mM): 1553 ohms

CCCCCCCCCCCC[N+](C)(C)CCCS(=O)(=O)[O-] [Sulfobetaine-12]
Permeability Coefficient (Caco-2 cell monolayers [1]; enhancer 0.15 mM (Table 7)): 0.257 ×10⁻⁶ cm/s
Fold Transport Increase (Caco-2 cell monolayers [1]; enhancer 0.15 mM (Table 7)): 1.4X
change in SAMe permeability across the Caco-2 cell monolayer (Caco-2 cell monolayers [1]): did not improve SAMe permeability
TEER Resist. 24 hour post assay (Caco-2 cell monolayers [3]; enhancer 0.15 mM): 1923 ohms

CCCCCCCCCCCCCC[N+](C)(C)CCCS(=O)(=O)[O-] [Sulfobetaine-14]
Permeability Coefficient (Caco-2 cell monolayers [1]; enhancer 0.15 mM (Table 7)): 0.654 ×10⁻⁶ cm/s
Fold Transport Increase (Caco-2 cell monolayers [1]; enhancer 0.15 mM (Table 7)): 5.0X
change in SAMe permeability across the Caco-2 cell monolayer (Caco-2 cell monolayers [1]): at least a five-fold increase
effect on in vivo bioavailability of SAMe / amount of SAMe in the plasma versus control [2]: significant increase in the bioavailability of SAMe
SAMe AUC [2, 9]: 10226 ng·h/mL
SAMe Cmax [2, 9]: 4148 ng/mL
TEER Resist. 24 hour post assay (Caco-2 cell monolayers [3]; enhancer 0.15 mM): 1892 ohms

CCCCCCCCCCCCCCCCCC[N+](C)(C)CCCS(=O)(=O)[O-] [Sulfobetaine-18]
Permeability Coefficient (Caco-2 cell monolayers [1]; enhancer 0.15 mM (Table 7)): 0.649 ×10⁻⁶ cm/s
Fold Transport Increase (Caco-2 cell monolayers [1]; enhancer 0.15 mM (Table 7)): 5.0X
change in SAMe permeability across the Caco-2 cell monolayer (Caco-2 cell monolayers [1]): at least a five-fold increase
TEER Resist. 24 hour post assay (Caco-2 cell monolayers [3]; enhancer 0.15 mM): 292 ohms

CC(=O)CC(c1ccccc1)c1c(O)c2ccccc2oc1=O (stereo not drawn) [Warfarin, reference compound]
Papp at 2 h, 50 uM ([6]; run 2): 48.8 ×10⁻⁶ cm/s
Papp at 2 h, 50 uM ([6]; run 3): 49 ×10⁻⁶ cm/s
Papp at 2 h, 50 uM ([6]; run 4): 46.6 ×10⁻⁶ cm/s

CCCCCCCCCC[N+](C)(C)CCCS(=O)(=O)[O-] [sulfobetaine-10]
change in SAMe permeability across the Caco-2 cell monolayer (Caco-2 cell monolayers [1]): did not improve SAMe permeability
